From patent publication US20120202856A1, “SUBSTITUTED BENZIMDAZOLE DERIVATIVES USEFUL AS TRPM8 RECEPTOR MODULATORS” (priority 2011, published 2012)
Where “and” joins values, the source holds several entries; their conditions need not be identical. Equal entries are not always repeated. Structures can show the parent of a compound that is named as a salt. Where two headings read alike, the source gives them in different places.

What was measured:
canine TRPM8 = molecular target: T1, canine TRPM8 (Canis lupus familiaris, UniProt Q1A7N1); experiment: In Vitro Canine TRPM8 Functional Assay (intracellular Ca2+ fluorescence, icilin activation, HEK293 cells); assay type: cell-based; conditions: for inhibition at 0.2 µM / % Inh (%) @0.2 μM, in vitro TRP M8 Activity: individually measured values; for IC50: HEK293 cells expressing canine TRPM8, icilin activation, individually measured values (batches/salt forms), read-out: IC50 (nM), in vitro TRP M8 Activity; for % Inh (%) @0.2 μM, in vitro TRP M8 Activity: 0.2 μM test compound
T1 construct: expressed in transfected cells
Method in brief: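 HEK293 cells expressing canine TRPM8 loaded with Calcium 3 dye, then stimulated with icilin; intracellular Ca2+ rise read on FLIPR or FDSS. Peak fluorescence minus basal normalized to percent maximal response; IC50 from sigmoidal nonlinear regression of quadruplicate wells.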

[1] = test system: icilin-induced “wet-dog” shakes (WDS); experiment: Inhibition of Icilin-Induced “Wet-Dog” Shakes in Rats; assay type: in vivo, Sprague Dawley rats; conditions: po, read-out: Icilin % Inhibition @1.5 hrs
Description: The test compound was administered in 10% hydroxypropyl-β-cyclodextrin (HP-13-CD), p.o., 60 min before icilin.
% Inhibition=[1−(test compound WDS count/vehicle WDS count)]×100.

[2] = HEK293, 0.2 μM test compound, read-out: % Inh (%) @0.2 μM, in vitro TRP M8 Activity
[3] = rat, p.o., dose 10 mg/kg, 1.5 hrs

T1 sequence (Q1A7N1 1-1104): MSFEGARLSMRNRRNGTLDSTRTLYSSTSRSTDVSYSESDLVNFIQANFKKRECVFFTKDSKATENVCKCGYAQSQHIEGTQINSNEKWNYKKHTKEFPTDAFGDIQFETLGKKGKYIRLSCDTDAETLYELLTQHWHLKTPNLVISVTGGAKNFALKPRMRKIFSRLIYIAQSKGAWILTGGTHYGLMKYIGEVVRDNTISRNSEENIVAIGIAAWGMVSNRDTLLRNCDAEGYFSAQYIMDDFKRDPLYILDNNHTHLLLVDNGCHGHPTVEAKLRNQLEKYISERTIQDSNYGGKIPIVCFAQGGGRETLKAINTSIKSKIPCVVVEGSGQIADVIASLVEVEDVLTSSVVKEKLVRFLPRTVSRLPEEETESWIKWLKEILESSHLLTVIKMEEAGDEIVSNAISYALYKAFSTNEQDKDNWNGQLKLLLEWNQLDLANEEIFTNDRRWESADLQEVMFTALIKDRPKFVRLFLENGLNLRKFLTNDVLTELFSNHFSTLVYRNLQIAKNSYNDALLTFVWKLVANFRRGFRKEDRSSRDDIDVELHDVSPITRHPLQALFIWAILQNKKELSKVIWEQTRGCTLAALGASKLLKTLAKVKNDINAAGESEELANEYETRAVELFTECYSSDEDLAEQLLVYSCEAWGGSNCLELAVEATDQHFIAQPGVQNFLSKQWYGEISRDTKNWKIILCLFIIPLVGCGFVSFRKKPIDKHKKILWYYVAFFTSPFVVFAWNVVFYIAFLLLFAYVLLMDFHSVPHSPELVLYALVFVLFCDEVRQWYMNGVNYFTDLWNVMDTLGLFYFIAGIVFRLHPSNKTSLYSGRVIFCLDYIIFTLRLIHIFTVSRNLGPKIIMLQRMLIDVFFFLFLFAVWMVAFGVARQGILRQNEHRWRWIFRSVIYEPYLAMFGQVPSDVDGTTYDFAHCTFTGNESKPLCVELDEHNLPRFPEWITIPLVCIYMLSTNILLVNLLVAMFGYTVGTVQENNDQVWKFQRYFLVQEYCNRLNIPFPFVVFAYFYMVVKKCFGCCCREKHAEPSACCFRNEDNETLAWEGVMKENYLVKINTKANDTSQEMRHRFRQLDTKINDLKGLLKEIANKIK

Cn1nc(C(C)(C)C)c(C#N)c1-c1nc2cc(-c3ccccc3OC(F)(F)F)cc(Cl)c2[nH]1 [Compound 170, 3-tert-Butyl-5-[7-chloro-5-(2-trifluoromethoxy-phenyl)-1H-benzimidazol-2-yl]-1-methyl-1H-pyrazole-4-carbonitrile sodium salt]
inhibition at 0.2 µM (canine TRPM8; [2]): 100%
IC50 (canine TRPM8): 12.4 nM
inhibition in vivo at 3 mg/kg ([1]; rat, p.o., 1.5 hrs): 4.3%

Cn1nc(C(C)(C)C)c(Cl)c1-c1nc2cc(-c3ccccc3Cl)ccc2[nH]1 [Compound 89, 2-(5-tert-Butyl-4-chloro-2-methyl-2H-pyrazol-3-yl)-5-(2-chloro-phenyl)-1H-benzimidazole hydrochloride]
IC50 (canine TRPM8): 3.6 nM and 5.2 nM and 2.4 nM
inhibition in vivo at 10 mg/kg [1, 3]: 91.5%

Cn1nc(C(C)(C)C)cc1-c1nc2cc(-c3c(F)cccc3C(F)(F)F)ccc2[nH]1 [Compound 61, 2-(5-tert-Butyl-2-methyl-2H-pyrazol-3-yl)-5-(2-fluoro-6-trifluoromethylphenyl)-1H-benzimidazole sodium salt]
IC50 (canine TRPM8): 7.8 nM and 10 nM
inhibition in vivo at 10 mg/kg ([1]; Rattus norvegicus, 1.5 h): 38.8%

Cn1nc(C(C)(C)C)c(Cl)c1-c1nc2cc(-c3ccccc3Cl)cc(Cl)c2[nH]1.[Na] [Compound 115, 2-(5-tert-Butyl-4-chloro-2-methyl-2H-pyrazol-3-yl)-7-chloro-5-(2-chloro-phenyl)-1H-benzimidazole sodium salt]
% Inh (%) @0.2 μM, in vitro TRP M8 Activity (canine TRPM8): 100, 100%
inhibition at 0.2 µM (canine TRPM8; [2]): 100%
IC50 (canine TRPM8): 2.2 nM and 5.6 nM and 4.9 nM
inhibition in vivo at 3 mg/kg ([1]; rat, p.o., 1.5 hrs): 45%

Cn1nc(C(C)(C)C)c(Cl)c1-c1nc2cc(-c3c(F)cccc3OC(F)(F)F)cc(Cl)c2[nH]1 [Compound 130, 2-(5-tert-Butyl-4-chloro-2-methyl-2H-pyrazol-3-yl)-7-chloro-5-(2-fluoro-6-trifluoromethoxy-phenyl)-1H-benzimidazole hydrochloride]
inhibition at 0.2 µM (canine TRPM8; [2]): 100%
IC50 (canine TRPM8): 10.7 nM and 5.3 nM
inhibition in vivo at 3 mg/kg ([1]; rat, p.o., 1.5 hrs): 22.7%

Cn1nc(C(C)(C)C)c(Cl)c1-c1nc2cc(-c3ccccc3C(F)(F)F)ccc2[nH]1 [Compound 50, 2-(5-tert-Butyl-4-chloro-2-methyl-2H-pyrazol-3-yl)-5-(2-trifluoromethylphenyl)-1H-benzimidazole sodium salt]
IC50 (canine TRPM8): 14 nM and 8.2 nM and 2.2 nM
inhibition in vivo at 10 mg/kg [1, 3]: 47.4%

Cl.Cn1nc(C(C)(C)C)c(Cl)c1-c1nc2cc(-c3c(F)cccc3F)cc(Cl)c2[nH]1 [Compound 112, 2-(5-tert-Butyl-4-chloro-2-methyl-2H-pyrazol-3-yl)-7-chloro-5-(2,6-difluoro-phenyl)-1H-benzimidazole hydrochloride]
% Inh (%) @0.2 μM, in vitro TRP M8 Activity (canine TRPM8): 99, 99%
inhibition at 0.2 µM (canine TRPM8; [2]): 99%
IC50 (canine TRPM8): 5.6 nM and 3.5 nM and 5.9 nM
inhibition in vivo at 3 mg/kg ([1]; rat, p.o., 1.5 hrs): 21.2%

Cl.Cn1nc(C(C)(C)C)c(Cl)c1-c1nc2cc(-c3ccccc3C(F)(F)F)cc(Cl)c2[nH]1 [Compound 116, 2-(5-tert-Butyl-4-chloro-2-methyl-2H-pyrazol-3-yl)-7-chloro-5-(2-trifluoromethyl-phenyl)-1H-benzimidazole hydrochloride]
% Inh (%) @0.2 μM, in vitro TRP M8 Activity (canine TRPM8; hydrochloride, 0.2 µM): 100%
inhibition at 0.2 µM (canine TRPM8; [2]): 99%
IC50 (canine TRPM8): 2.6 nM and 5.8 nM and 5.5 nM
inhibition in vivo at 3 mg/kg ([1]; rat, p.o., 1.5 hrs): 47.7%

FC(F)(F)c1ccccc1-c1ccc2nc(-c3cc(C4CCCCC4)no3)[nH]c2c1 [Compound 24, 2-(3-Cyclohexylisoxazol-5-yl)-6-(2-trifluoromethylphenyl)-1H-benzimidazole hydrochloride]
inhibition at 0.2 µM (canine TRPM8; [2]): 63%

Cn1nc(C(F)(F)F)cc1-c1nc2cc(-c3ccccc3OC(F)(F)F)ccc2[nH]1 [Compound 41, 2-(5-Trifluoromethyl-2-methyl-2H-pyrazol-3-yl)-5-(2-trifluoromethoxyphenyl)-1H-benzimidazole sodium salt]
IC50 (canine TRPM8): 133 nM

Cc1oc(C(C)(C)C)cc1-c1nc2cc(-c3ccccc3F)ccc2[nH]1 [Compound 174, 2-(5-tert-Butyl-2-methyl-furan-3-yl)-5-(2-fluoro-phenyl)-1H-benzimidazole sodium salt]
inhibition at 0.2 µM (canine TRPM8; [2]): 83%
IC50 (canine TRPM8): 33.4 nM

Cn1nc(C(C)(C)C)cc1-c1nc2cc(-c3ccccc3OC(F)(F)F)ccc2[nH]1 [Compound 14, 2-(5-tert-Butyl-2-methyl-2H-pyrazol-3-yl)-5-(2-trifluoromethoxyphenyl)-1H-benzimidazole sodium salt]
IC50 (canine TRPM8): 44 nM

Cc1nc(C(C)(C)C)oc1-c1nc2cc(-c3ccccc3)cc(Cl)c2[nH]1 [Compound 180, 2-(2-tert-Butyl-4-methyl-oxazol-5-yl)-7-chloro-5-phenyl-1H-benzimidazole hydrochloride]
inhibition at 0.2 µM (canine TRPM8; [2]): 6%

Cn1nc2c(c1-c1nc3cc(-c4ccccc4C(F)(F)F)ccc3[nH]1)CCCC2(C)C [Compound 30, 2,7,7-Trimethyl-3-[5-(2-trifluoromethylphenyl)-1H-benzimidazol-2-yl]-4,5,6,7-tetrahydro-2H-indazole sodium salt]
IC50 (canine TRPM8): 36 nM

Cc1oc(C(C)(C)C)nc1-c1nc2cc(-c3ccccc3F)cc(C(F)(F)F)c2[nH]1 [Compound 154, 2-(2-tert-Butyl-5-methyl-oxazol-4-yl)-5-(2-fluoro-phenyl)-7-trifluoromethyl-1H-benzimidazole hydrochloride]
inhibition at 0.2 µM (canine TRPM8; [2]): 57%

Cn1nc(C(C)(C)C)c(C#N)c1-c1nc2cc(-c3ccccc3C(F)(F)F)cc(C(F)(F)F)c2[nH]1.[Na] [Compound 149, 3-tert-Butyl-1-methyl-5-[7-trifluoromethyl-5-(2-trifluoromethyl-phenyl)-1H-benzimidazol-2-yl]-1H-pyrazole-4-carbonitrile sodium salt]
% Inh (%) @0.2 μM, in vitro TRP M8 Activity (canine TRPM8; sodium salt, 0.2 µM): 99%
inhibition at 0.2 µM (canine TRPM8; HEK293, read-out: % Inh (%) @0.2 μM, in vitro TRP M8 Activity, 0.2 μM test compound): 100%
IC50 (canine TRPM8): 3.8 nM and 5.1 nM and 3.2 nM

Cn1nc(C(C)(C)C)nc1-c1nc2cc(-c3ccccc3C(F)(F)F)cc(C(F)(F)F)c2[nH]1 [Compound 192, 2-(5-tert-Butyl-2-methyl-2H-[1,2,4]triazol-3-yl)-7-trifluoromethyl-5-(2-trifluoromethyl-phenyl)-1H-benzimidazole sodium salt]
IC50 (canine TRPM8): 7.5 nM

Cn1nc2c(c1-c1nc3cc(-c4ccccc4F)ccc3[nH]1)CCC2(C)C [Compound 131]
inhibition at 0.2 µM (canine TRPM8; [2]): 100%
IC50 (canine TRPM8): 42 nM

Cl.Cn1nc(C(C)(C)C)c(C#N)c1-c1nc2cc(-c3ccccc3Cl)cc(C(F)(F)F)c2[nH]1 [Compound 148, 3-tert-Butyl-5-[5-(2-chloro-phenyl)-7-trifluoromethyl-1H-benzimidazol-2-yl]-1-methyl-1H-pyrazole-4-carbonitrile hydrochloride]
% Inh (%) @0.2 μM, in vitro TRP M8 Activity (canine TRPM8; hydrochloride, 0.2 µM): 99%
inhibition at 0.2 µM (canine TRPM8; [2]): 100%
IC50 (canine TRPM8): 5 nM and 4.1 nM and 2.9 nM

Cc1c(C(C)(C)C)noc1-c1nc2cc(-c3ccccc3F)ccc2[nH]1 [Compound 106, 2-(3-tert-Butyl-4-methyl-isoxazol-5-yl)-5-(2-fluoro-phenyl)-1H-benzimidazole hydrochloride]
IC50 (canine TRPM8): 21.8 nM

Cc1c(C(C)(C)C)noc1-c1nc2cc(-c3c(F)cccc3F)ccc2[nH]1 [Compound 109, 2-(3-tert-Butyl-4-methyl-isoxazol-5-yl)-5-(2,6-difluoro-phenyl)-1H-benzimidazole hydrochloride]
IC50 (canine TRPM8): 13.9 nM

Cl.Cn1nc(C(C)(C)C)c(Cl)c1-c1nc2cc(-c3ccccc3F)cc(Cl)c2[nH]1 [Compound 114, 2-(5-tert-Butyl-4-chloro-2-methyl-2H-pyrazol-3-yl)-7-chloro-5-(2-fluoro-phenyl)-1H-benzimidazole sodium salt]
% Inh (%) @0.2 μM, in vitro TRP M8 Activity (canine TRPM8; sodium salt, 0.2 µM): 100%
inhibition at 0.2 µM (canine TRPM8; [2]): 99%
IC50 (canine TRPM8): 4.7 nM and 10.3 nM and 10.2 nM

Cc1c(C(C)(C)C)nn(C)c1-c1nc2cc(-c3ccccc3F)cc(C(F)(F)F)c2[nH]1 [Compound 118, 2-(5-tert-Butyl-2,4-dimethyl-2H-pyrazol-3-yl)-5-(2-fluoro-phenyl)-7-trifluoromethyl-1H-benzimidazole hydrochloride]
IC50 (canine TRPM8): 9.6 nM

Cn1nc(C(C)(C)C)cc1-c1nc2cc(-c3ccccc3C#N)ccc2[nH]1 [Compound 60, 2-[2-(5-tert-Butyl-2-methyl-2H-pyrazol-3-yl)-1H-benzimidazol-5-yl]-benzonitrile trifluoroacetic acid salt]
IC50 (canine TRPM8): 11.9 nM

Cn1nc(C(C)(C)C)c(C(F)(F)F)c1-c1nc2cc(-c3ccccc3C(F)(F)F)cc(C(F)(F)F)c2[nH]1 [Compound 187, 2-(5-tert-Butyl-2-methyl-4-trifluoromethyl-2H-pyrazol-3-yl)-7-trifluoromethyl-5-(2-trifluoromethyl-phenyl)-1H-benzimidazole sodium salt]
inhibition at 0.2 µM (canine TRPM8; [2]): 100%
IC50 (canine TRPM8): 14.7 nM

Cn1nc(C(C)(C)C)cc1-c1nc2cc(-c3ccccc3OC(F)F)ccc2[nH]1 [Compound 81, 2-(5-tert-Butyl-2-methyl-2H-pyrazol-3-yl)-5-(2-difluoromethoxyphenyl)-1H-benzimidazole hydrochloride]
IC50 (canine TRPM8): 2 nM and 7 nM

Cc1c(C(C)(C)C)nn(C)c1-c1nc2cc(-c3c(F)cccc3C(F)(F)F)cc(Cl)c2[nH]1 [Compound 137, 2-(5-tert-Butyl-2,4-dimethyl-2H-pyrazol-3-yl)-7-chloro-5-(2-fluoro-6-trifluoromethyl-phenyl)-1H-benzimidazole hydrochloride]
inhibition at 0.2 µM (canine TRPM8; [2]): 99%
IC50 (canine TRPM8): 3 nM and 4.7 nM

Cc1nc(C(C)(C)C)oc1-c1nc2cc(-c3ccccc3)cc(C(F)(F)F)c2[nH]1 [Compound 178, 2-(2-tert-Butyl-4-methyl-oxazol-5-yl)-5-phenyl-7-trifluoromethyl-1H-benzimidazole hydrochloride]
inhibition at 0.2 µM (canine TRPM8; [2]): 17%
